# According to US8765748B2, “Indazolyl, benzimidazolyl, benzotriazolyl substituted indolinone derivatives as kinase inhibitors useful in the treatment of cancer” (University Health Network, priority 2007, dated 2014):
# Like-named read-outs stand apart in the source and are kept apart here.
# Key:
# [1] = test system: MDA-MB-231 breast cancer cell line; assay: Cell growth inhibition, SRB assay, extended panel; format: cell-based; details: Homo sapiens, read-out: GI50 Range, MDA-MB-231
# Experimental: (§1) Breast cancer cells (MCF-7, MDA-MB-468, HCC1954), colon cancer cells (SW620) and lung cancer cells (A549), together with human mammary epithelial primary cells (HMEC), were seeded (1000 to 4000 per 80 μl per well depending on the cell growth rate) into 96 well plates, 24 hours before compound overlay. Compounds were prepared as 10 mM stock solutions in 100% DMSO which were diluted with DMEM (Dulbecco's Modified Eagle's Medium) cell growth Medium (Invitrogen, Burlington, ON, Canada) containing 10% FBS (Fetal Bovine Serum) to concentrations ranging from 50 nM to 250 μM. Aliquots (20 μl) from each concentration were overlaid to 80 μl of the pre-seeded cells in the 96 well plates to make final concentrations of 10 nM to 50 μM. The cells were cultured for 5 days before the Sulforhodamine B assay (SRB) was performed to determine the compound's cell growth inhibition activity.
# (§2) Sulforhodamine B (purchased from Sigma, Oakville, ON, Canada) is a water-soluble dye that binds to the basic amino acids of the cellular proteins. Thus, colorimetric measurement of the bound dye provides an estimate of the total protein mass that is related to the cell number. the cells are fixed in situ by gently aspirating off the culture media and adding 50 μl ice cold 10% Tri-chloroacetic Acid (TCA) per well and incubate at 4° C. for 30-60 min, The plates are washed with water five times and allowed to air dry for 5 min. Addition of 50 μl 0.4% (w/v) SRB solution in 1% (v/v) acetic acid to each well and incubatation for 30 min at RT completes the staining reaction. Following staining, plates are washed four times with 1% acetic acid to remove unbound dye and then allowed to air dry for 5 min. The stain is solubilized with 100 μl of 10 mM Tris pH10.5 per well. Absorbance is read at 570 nm.
# (§3) The percentage (%) of relative growth inhibition was calculated by comparing to DMSO treated only cells (100%). GI50's were determined for compounds with cytotoxic activity. The GI50 was calculated using GraphPad PRISM software (GraphPad Software, Inc., San Diego, Calif., USA).
# (§4) In addition to the cell lines tested as described above, selected compounds have been assayed against an extended panel. […] The sulforhodamine B assay (SRB) described above was use to assay test compounds against the extended panel (Table 9).
# [2] = test system: PC-3 prostate cancer cell line; assay: Cell growth inhibition, SRB assay, extended panel; format: cell-based; details: read-out: GI50 Range, PC-3
# Experimental: as §1, §2, §3, §4
# 518A2 melanoma cell line = assay: Cell growth inhibition, SRB assay, extended panel; format: cell-based; details: Homo sapiens, read-out: GI50 Range, 518A2
# Experimental: as §1, §2, §3, §4
# [3] = test system: HCT116+/+ colon cancer cell line; assay: Cell growth inhibition, SRB assay, extended panel; format: cell-based; details: Homo sapiens, HCT-116, read-out: GI50 Range, HCT116+/+
# Experimental: as §1, §2, §3, §4
# [4] = test system: HCT116+/− colon cancer cell line; assay: Cell growth inhibition, SRB assay, extended panel; format: cell-based; details: Homo sapiens, HCT-116, read-out: GI50 Range, HCT116+/−
# Experimental: as §1, §2, §3, §4
# [5] = test system: SW 626 ovarian cancer cell line; assay: Cell growth inhibition, SRB assay, extended panel; format: cell-based; details: Homo sapiens, SW626, read-out: GI50 Range, SW 626
# Experimental: as §1, §2, §3, §4
# [6] = test system: BT474 breast cancer cell line; assay: Cell growth inhibition, SRB assay, extended panel; format: cell-based; details: Homo sapiens, BT-474, read-out: GI50 Range, BT474
# Experimental: as §1, §2, §3, §4
# [7] = test system: A172 brain cancer cell line; assay: Cell growth inhibition, SRB assay, extended panel; format: cell-based; details: Homo sapiens, A 172, read-out: GI50 Range, A172
# Experimental: as §1, §2, §3, §4
# [8] = test system: T47 D breast cancer cell line; assay: Cell growth inhibition, SRB assay, extended panel; format: cell-based; details: Homo sapiens, T47D; SRB, extended panel; read-out: GI50 Range, T47 D
# Experimental: as §1, §2, §3, §4
# [9] = test system: SK-N-SH brain cancer cell line; assay: Cell growth inhibition, SRB assay, extended panel; format: cell-based; details: Homo sapiens, read-out: GI50 Range, SK-N-SH
# Experimental: as §1, §2, §3, §4
# [10] = test system: HS578T breast cancer cell line; assay: Cell growth inhibition, SRB assay, extended panel; format: cell-based; details: Homo sapiens, Hs-578T, read-out: GI50 Range, HS578T
# Experimental: as §1, §2, §3, §4
# [11] = test system: Hs683 brain cancer cell line; assay: Cell growth inhibition, SRB assay, extended panel; format: cell-based; details: Homo sapiens, Hs 683, read-out: GI50 Range, Hs683
# Experimental: as §1, §2, §3, §4
# [12] = test system: SKBR3 breast cancer cell line; assay: Cell growth inhibition, SRB assay, extended panel; format: cell-based; details: Homo sapiens, SK-BR-3, read-out: GI50 Range, SKBR3
# Experimental: as §1, §2, §3, §4
# [13] = test system: SK-OV-3 ovarian cancer cell line; assay: Cell growth inhibition, SRB assay, extended panel; format: cell-based; details: Homo sapiens, read-out: GI50 Range, SK-OV-3
# Experimental: as §1, §2, §3, §4
# [14] = test system: HCT-15 colon cancer cell line; assay: Cell growth inhibition, SRB assay, extended panel; format: cell-based; details: Homo sapiens, read-out: GI50 Range, HCT-15
# Experimental: as §1, §2, §3, §4
# [15] = test system: MDA-MB-468 basal breast cancer cell line; assay: Cell growth inhibition, Sulforhodamine B assay (SRB); format: cell-based; details: Homo sapiens, MDA-MB-468, 120 h; 5 days culture, SRB; read-out: Cell Line GI50 Range, MDA-MB-468
# Procedure, shortened: (§5)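 Cells seeded 24 h before compound addition, then exposed to 10 nM–50 μM final compound in DMEM + 10% FBS for 5 days. Growth measured by TCA fixation, SRB staining and absorbance at 570 nm; % inhibition relative to DMSO-only cells, with GI50 fitted for cytotoxic compounds.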
# [16] = test system: HCC1954 basal breast cancer cell line; assay: as above; format: cell-based; details: Homo sapiens
# Procedure, shortened: as §5
# [17] = test system: MCF-7 luminal breast cancer cell line; assay: as above; format: cell-based; details: Homo sapiens, MCF7, 120 h; 5 days culture, SRB; read-out: Cell Line GI50 Range, MCF-7
# Procedure, shortened: as §5
# A549 lung cancer cells = assay: as above; format: cell-based; details: Homo sapiens, A549, 120 h, 5 days culture, read-out: Cell Line GI50 Range, A-549
# Procedure, shortened: as §5
# [18] = test system: human mammary epithelial primary cells (HMEC); assay: as above; format: cell-based; details: 120 h, 5 days culture, read-out: Cell Line GI50 Range, HMEC
# Procedure, shortened: as §5
# SW620 colon cancer cells = assay: as above; format: cell-based; details: Homo sapiens, SW-620, 120 h, 5 days culture, read-out: Cell Line GI50 Range, SW-620
# Procedure, shortened: as §5
# TRKA = TRKA (Homo sapiens, UniProt P04629); assay: Kinase Selectivity Assay (CEREP, HTRF); format: biochemical; design: purchased CEREP, France (contract assay service); details: read-out: % Inhibition at 10 μM Concentration, TRKA
# Experimental: kinase, ROCK2, RSK2, Src kinase, Syk, and TRKA. The % Inhibition was determined
# [19] = HCC1954, 120 h, 5 days culture, read-out: Cell Line GI50 Range, HCC-1954
# [20] = HCC1954, extended panel (Table 9), read-out: GI50 Range, HCC1954
# TRKA, sequence (P04629 33-796): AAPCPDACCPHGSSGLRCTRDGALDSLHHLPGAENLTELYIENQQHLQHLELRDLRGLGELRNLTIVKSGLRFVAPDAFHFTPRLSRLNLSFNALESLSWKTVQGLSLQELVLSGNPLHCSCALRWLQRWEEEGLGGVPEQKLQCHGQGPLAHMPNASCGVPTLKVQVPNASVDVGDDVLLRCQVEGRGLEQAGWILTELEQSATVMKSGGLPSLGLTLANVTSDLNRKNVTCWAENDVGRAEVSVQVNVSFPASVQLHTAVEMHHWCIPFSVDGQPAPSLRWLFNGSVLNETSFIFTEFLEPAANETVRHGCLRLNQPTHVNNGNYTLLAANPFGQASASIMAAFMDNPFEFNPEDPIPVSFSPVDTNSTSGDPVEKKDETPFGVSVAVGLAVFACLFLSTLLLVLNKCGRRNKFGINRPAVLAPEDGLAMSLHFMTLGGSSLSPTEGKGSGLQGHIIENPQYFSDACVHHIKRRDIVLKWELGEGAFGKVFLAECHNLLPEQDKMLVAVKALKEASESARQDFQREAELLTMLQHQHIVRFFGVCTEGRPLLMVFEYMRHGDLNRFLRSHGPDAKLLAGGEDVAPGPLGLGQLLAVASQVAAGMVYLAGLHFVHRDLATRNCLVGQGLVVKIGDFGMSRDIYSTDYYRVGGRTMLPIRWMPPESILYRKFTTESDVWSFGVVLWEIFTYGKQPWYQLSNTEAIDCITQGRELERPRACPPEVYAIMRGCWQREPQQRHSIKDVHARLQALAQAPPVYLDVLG
SMILES,GI50 [1],GI50 [2],GI50 (518A2 melanoma cell line),GI50 [3],GI50 [4],GI50 [5],GI50 [6],GI50 [7],GI50 [8],GI50 [9],GI50 [10],GI50 [12],GI50 [15],"GI50 [16, 19]","GI50 [16, 20]",GI50 [17],GI50 (A549 lung cancer cells),GI50 [18],GI50 (SW620 colon cancer cells),inhibition at 10 µM (TRKA),also measured
"CN1CCN(c2ccc(/C=C/c3n[nH]c4cc(C=C5C(=O)Nc6ccccc65)ccc34)cn2)CC1 (mixture of isomers) [Example A108, (E and Z)-3-((3-((E)-2-(6-(4-methylpiperazin-1-yl)pyridin-3-yl)vinyl)-1H-indazol-6-yl)methylene)indolin-2-one]",< 5 µM,< 5 µM,< 5 µM,< 5 µM,< 5 µM,< 5 µM,< 5 µM,< 5 µM,< 5 µM,< 5 µM,< 5 µM,< 5 µM,< 5 µM,< 5 µM,< 5 µM,< 5 µM,< 5 µM,< 5 µM,< 5 µM,–,GI50 [11]: < 5 µM; GI50 [13]: < 5 µM; GI50 [14]: < 5 µM
"COc1ccc2c(c1)C(=Cc1ccc3c(-c4ccc(N5CCN(C)CC5)nc4)n[nH]c3c1)C(=O)N2 (mixture of isomers) [Example A97, (E and Z)-5-methoxy-3-((3-(6-(4-methylpiperazin-1-yl)pyridin-3-yl)-1H-indazol-6-yl)methylene)indolin-2-one]",< 5 µM,–,–,< 5 µM,< 5 µM,–,< 5 µM,–,< 5 µM,–,< 5 µM,< 5 µM,< 5 µM,< 5 µM,< 5 µM,< 5 µM,< 5 µM,20 to 50 µM,< 5 µM,93%,–
"CN(C)Cc1ccc(/C=C/c2n[nH]c3cc(C=C4C(=O)Nc5ccccc54)ccc23)cc1 (mixture of isomers) [Example A106, (E and Z)-3-[(3-{(E)-2-[4-((dimethylamino)methyl)-phenyl]-ethenyl}-1H-indazol-6-yl)methylidene]-1,3-dihydro-2H-indol-2-one 2,2,2-trifluoroacetate]",–,–,–,–,–,–,–,–,–,–,–,–,< 5 µM,< 5 µM,–,< 5 µM,< 5 µM,5 to 20 µM,< 5 µM,–,–
"O=C1Nc2ccccc2C1=Cc1ccc2c(/C=C/c3ccccn3)n[nH]c2c1 (mixture of isomers) [Example A41, (E and Z)-3-((3-((E)-2-(pyridin-2-yl)vinyl)-1H-indazol-6-yl)methylene)indolin-2-one]",5 to 20 µM,20 to 50 µM,< 5 µM,> 50 µM,> 50 µM,> 50 µM,> 50 µM,< 5 µM,< 5 µM,< 5 µM,5 to 20 µM,< 5 µM,< 5 µM,20 to 50 µM,< 5 µM,< 5 µM,5 to 20 µM,> 50 µM,5 to 20 µM,99%,GI50 [11]: < 5 µM; GI50 [13]: > 50 µM; GI50 [14]: < 5 µM
"O=C1Nc2ccccc2/C1=C\c1ccc2[nH]nnc2c1 [Example A1, (E)-3-((1H-benzo[d][1,2,3]triazol-5-yl)methylene)indolin-2-one]",–,–,–,–,–,–,–,–,–,–,–,–,–,–,–,–,–,–,–,-13%,–
"O=C1Nc2ncc(Br)cc2C1=Cc1ccc2c(/C=C/c3ccncc3)n[nH]c2c1 (mixture of isomers) [Example A109, (E and Z)-5-bromo-3-((3-((E)-2-(pyridin-4-yl)vinyl)-1H-indazol-6-yl)methyl-ene)-1H-pyrrolo[2,3-b]pyridin-2(3H)-one]",< 5 µM,< 5 µM,< 5 µM,< 5 µM,< 5 µM,5 to 20 µM,5 to 20 µM,< 5 µM,< 5 µM,< 5 µM,< 5 µM,> 50 µM,< 5 µM,> 50 µM,> 50 µM,< 5 µM,< 5 µM,> 50 µM,< 5 µM,–,GI50 [11]: < 5 µM; GI50 [13]: 5 to 20 µM; GI50 [14]: < 5 µM
"O=C1Nc2ccccc2/C1=C\c1ccc2cn[nH]c2c1 [Example A5, (E)-3-((1H-indazol-6-yl)methylene)indolin-2-one]",–,–,–,–,–,–,–,–,–,–,–,–,–,–,–,–,–,–,–,60%,–
"O=C1Nc2ccccc2/C1=C\c1ccc2c(/C=C/c3ccccc3Cl)n[nH]c2c1 [Example A60, (E)-3-((3-((E)-2-chlorostyryl)-1H-indazol-6-yl)methylene)indolin-2-one]",–,–,–,–,–,–,–,–,–,–,–,–,–,–,–,–,–,–,–,75%,–
